Results from US5334583A (priority 1982, dated 1994).

Tests used:
Format in all cases: in vivo
[1] = tested on: Herpes Simplex 1/TUP; test: Survival of mice infected intranasally with lethal dose of Herpes Simplex 1/TUP; settings: intranasal, day -7, 0.1 mg/kg single dose; control 20
Procedure: Groups of 30, 40 or 50 female MF-2f SPF mice each having a body weight of 14-16 g, or of 12-14 g in the case of tests with herpes simplex 1 viruses, are infected intranasally, under light anaesthesia using a mixture of equal parts of ether, ethanol and chloroform, with lethal doses (approximately LD80-90; number of plaque-forming units [PFU] see Table 1 ) of the undermentioned virus strains in the form of 0.05 ml in each case of a suspension of the viruses.
At the time indicated below (days) in relation to the day of infection, 10 or 20 of these mice are administered once (single dose) the quantities indicated in Table 1 of the active ingredient, the sodium salt of N-acetylmuramyl-L-alanyl-D-isoglutaminyl-L-alanine-2-(1,2-dipalmitoyl-sn-glycero-3-hydroxyphosphoryloxy)-ethylamide (compound I), in 0.05 ml or 0.1 ml of phosphate-buffered salt solution (PBS) or in 0.2 ml of a 0.05 % by weight solution of sodium carboxymethylcellulose in double-distilled water, by means of intranasal, intravenous or oral administration respectively, in the manner indicated in Table 1 .
The remainder of the above-mentioned mice, that is 20 or 30, serve as the control, that is to say they either receive no treatment or are given a placebo.
The intranasal administration of compound I is effected under light anaesthesia using a mixture of equal parts of diethyl ether, ethanol and chloroform.

[2] = tested on: vaccinal virus IHD; test: Tail lesions in mice infected intravenously with vaccinal virus IHD; settings: 1 mg/kg oral; for Number of tail lesions (mean ± standard deviation) on day +7 / Number of tail lesions (mean ± standard deviation) on day +9: control 4.3 ± 1.9; for Number of tail lesions (mean ± standard deviation) on day +12: control 4.6 ± 1.8; for Number of tail lesions (mean ± standard deviation) on day +10: control 5.9 ± 1.9
Procedure: Groups of 20 female Tif:MF-2f (SPF) mice each having a body weight of 14-16 g are infected intravenously, under light anaesthesia using a mixture of equal parts of diethyl ether, ethanol and chloroform, with 2×10^3 PFU vaccinal virus IHD in the form of in each case 0.1 ml of a suspension of the virus in beef heart infusion broth.
10 of these mice from each of the above-mentioned groups are treated on the fourth or sixth day after infection, that is to say on day +4 or +6 (administration day), with a single oral administration of 1 mg/kg of compound I in 0.2 ml of a 0.05 % by weight aqueous solution of sodium carboxymethylcellulose.
The remaining 10 mice from each of the above-mentioned groups serve as the controls and receive a placebo.
On the seventh, ninth, tenth and twelfth day after infection the number of tail lesions in the mice is determined, this being carried out substantially as described by J. J. Boyle, R. F. Haff and R. C. Stewart in Antimicrobial Agents and Chemotherapy, 536-539 (1967), and it should be noted that the first tail lesions can be identified only on the sixth or seventh day.

[3] = tested on: Herpesvirus hominis 2/Angelotti; test: Topical chemotherapy of Herpes genitalis in guinea pigs, local symptoms; settings: for Animals [%] with regression of symptoms of ≥ 66% on day 7 / Animals [%] with regression of symptoms of ≥ 66% on day 10 / Animals [%] with regression of symptoms of ≥ 66% on day 12 / Animals [%] with regression of symptoms of ≥ 66% on day 14 / Symptom-free animals [%] on day 10 / Symptom-free animals [%] on day 12 / Symptom-free animals [%] on day 14 / Symptom-free animals [%] on day 21: placebo 0, untreated 0; for Symptom-free animals [%] on day 34: placebo 0, untreated 20
Text: The number indicated in the following Table of female albino guinea pigs of the Pirbright strain (150-180 g body weight) are infected intravaginally with ~10^4 PFU (plaque-forming units) of Herpesvirus hominis 2/Angelotti, cultivated in HEL (human embryonal lungs) cells, as described in B. Lukas et. al., Arch. ges. Virusforsch. 44, 153-155 (1974) .
At the time indicated in the following Table (the time difference in days in relation to the day of infection, - [minus] indicating a time before infection) the number N of guinea pigs indicated in Table 2 are treated intravaginally with a single dose of in each case 0.1 ml of a gel containing the concentration of compound I indicated in Table 2.
The gel without active ingredient has the following composition:
2.25 % sodium carboxymethylcellulose (Hercules, USA)
made up to 100 % with bi-distilled water.
The effect of the treatment can be seen in Table 2.
The symptoms occurring in untreated animals are described in B. Lukas et al., Arch. Virol. 49, 1-11 (1975) .

[4] = tested on: Encephalomyocarditis; test: Survival of mice infected intranasally with lethal dose of Encephalomyocarditis virus; settings: oral, control 30
[5] = tested on: Herpes Simplex 1/Virtue; test: Survival of mice infected intranasally with lethal dose of Herpes Simplex 1/Virtue; settings: intranasal, day -7, 0.1 mg/kg single dose; control 40
[6] = tested on: Influenza B/Hong Kong/5/72; test: Survival of mice infected intranasally with lethal dose of Influenza B/Hong Kong/5/72; settings: intranasal, day -7, 0.1 mg/kg single dose; control 30
[7] = single administration on day +4
[8] = single administration on day +6
[9] = 0.1 ml gel 0.1 % intravaginal, single dose day +4, N 13
[10] = 0.1 ml gel 0.1 % intravaginal, single dose day -7, N 14
[11] = 0.1 ml gel 1.0 % intravaginal, single dose day +4, N 14
[12] = 0.1 ml gel 1.0 % intravaginal, single dose day -7, N 14

Structure (SMILES): CCCCCCCCCCCCCCCC(=O)OC[C@H](COP(=O)(O)OCCNC(=O)[C@H](C)NC(=O)CC[C@@H](NC(=O)[C@H](C)NC(=O)[C@@H](C)O[C@H]1[C@H](O)[C@@H](CO)OC(O)[C@@H]1NC(C)=O)C(N)=O)OC(=O)CCCCCCCCCCCCCCC (stereo partly drawn) [compound I, N-acetylmuramyl-L-alanyl-D-isoglutaminyl-L-alanine-2-(1,2-dipalmitoyl-sn-glycero-3-hydroxyphosphoryloxy)-ethylamide]
- Percentage survivors [1]: 60%
- Number of tail lesions (mean ± standard deviation) on day +7 [2, 7]: 0.9 ± 0.7
- Number of tail lesions (mean ± standard deviation) on day +9 [2, 7]: 0.9 ± 0.9
- Number of tail lesions (mean ± standard deviation) on day +12 [2, 7]: 0.2 ± 0.4
- Number of tail lesions (mean ± standard deviation) on day +10 [2, 7]: 0.9 ± 1.4
- Number of tail lesions (mean ± standard deviation) on day +7 [2, 8]: 1.1 ± 1.4
- Number of tail lesions (mean ± standard deviation) on day +9 [2, 8]: 0.9 ± 1.6
- Number of tail lesions (mean ± standard deviation) on day +12 [2, 8]: 0.5 ± 1.0
- Number of tail lesions (mean ± standard deviation) on day +10 [2, 8]: 0.3 ± 0.7
- Animals [%] with regression of symptoms of ≥ 66% on day 7 [3, 9]: 62%
- Animals [%] with regression of symptoms of ≥ 66% on day 10 [3, 9]: 85%
- Animals [%] with regression of symptoms of ≥ 66% on day 12 [3, 9]: 100%
- Animals [%] with regression of symptoms of ≥ 66% on day 14 [3, 9]: 93%
- Symptom-free animals [%] on day 10 [3, 9]: 70%
- Symptom-free animals [%] on day 12 [3, 9]: 77%
- Symptom-free animals [%] on day 14 [3, 9]: 85%
- Symptom-free animals [%] on day 21 [3, 9]: 100%
- Symptom-free animals [%] on day 34 [3, 9]: 100%
- Animals [%] with regression of symptoms of ≥ 66% on day 7 [3, 10]: 21%
- Animals [%] with regression of symptoms of ≥ 66% on day 10 [3, 10]: 57%
- Animals [%] with regression of symptoms of ≥ 66% on day 12 [3, 10]: 86%
- Animals [%] with regression of symptoms of ≥ 66% on day 14 [3, 10]: 100%
- Symptom-free animals [%] on day 10 [3, 10]: 43%
- Symptom-free animals [%] on day 12 [3, 10]: 64%
- Symptom-free animals [%] on day 14 [3, 10]: 86%
- Symptom-free animals [%] on day 21 [3, 10]: 86%
- Symptom-free animals [%] on day 34 [3, 10]: 100%
- Animals [%] with regression of symptoms of ≥ 66% on day 7 [3, 11]: 79%
- Animals [%] with regression of symptoms of ≥ 66% on day 10 [3, 11]: 79%
- Animals [%] with regression of symptoms of ≥ 66% on day 12 [3, 11]: 86%
- Animals [%] with regression of symptoms of ≥ 66% on day 14 [3, 11]: 93%
- Symptom-free animals [%] on day 10 [3, 11]: 36%
- Symptom-free animals [%] on day 12 [3, 11]: 64%
- Symptom-free animals [%] on day 14 [3, 11]: 79%
- Symptom-free animals [%] on day 21 [3, 11]: 86%
- Symptom-free animals [%] on day 34 [3, 11]: 100%
- Animals [%] with regression of symptoms of ≥ 66% on day 7 [3, 12]: 29%
- Animals [%] with regression of symptoms of ≥ 66% on day 10 [3, 12]: 79%
- Animals [%] with regression of symptoms of ≥ 66% on day 12 [3, 12]: 71%
- Animals [%] with regression of symptoms of ≥ 66% on day 14 [3, 12]: 93%
- Symptom-free animals [%] on day 10 [3, 12]: 21%
- Symptom-free animals [%] on day 12 [3, 12]: 57%
- Symptom-free animals [%] on day 14 [3, 12]: 86%
- Symptom-free animals [%] on day 21 [3, 12]: 86%
- Symptom-free animals [%] on day 34 [3, 12]: 100%
- Percentage survivors ([4]; day +4, 1 mg/kg single dose): 90%
- Percentage survivors ([4]; day +4, 10 mg/kg single dose): 70%
- Percentage survivors ([4]; day +4, 100 mg/kg single dose): 100%
- Percentage survivors [5]: 70%
- Percentage survivors [6]: 80%
